Measured values taken from PubChem BioAssay (NCI).
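Assay format: 96-well plates, 48-hour exposure. At the GI50, growth is halved. TGI is the concentration that stops growth completely.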

How the values were obtained:
Test in all cases: DTP human tumour cell line panel, 48 h
LOX IMVI melanoma = tested on: LOX IMVI melanoma
SN12C renal = tested on: SN12C renal
HT29 colon = tested on: HT29 colon
RXF 393 renal = tested on: RXF 393 renal
NCI-H226 lung = tested on: NCI-H226 lung
HCT-116 colon = tested on: HCT-116 colon
SR leukemia = tested on: SR leukemia
SF-539 CNS = tested on: SF-539 CNS
DU-145 prostate = tested on: DU-145 prostate
HS 578T breast = tested on: HS 578T breast

Structure (SMILES) | GI50 (LOX IMVI melanoma) | TGI (LOX IMVI melanoma) | GI50 (SN12C renal) | TGI (SN12C renal) | GI50 (HT29 colon) | TGI (HT29 colon) | GI50 (RXF 393 renal) | TGI (RXF 393 renal) | GI50 (NCI-H226 lung) | TGI (NCI-H226 lung) | GI50 (HCT-116 colon) | TGI (HCT-116 colon) | GI50 (SR leukemia) | TGI (SR leukemia) | GI50 (SF-539 CNS) | TGI (SF-539 CNS) | GI50 (DU-145 prostate) | TGI (DU-145 prostate) | GI50 (HS 578T breast) | TGI (HS 578T breast)
COc1cc(C2=Nc3c/c(=C\c4c(O)[nH]c5ccc(Cl)cc45)ccc3=N2)cc(OC)c1OC | 1.74 µM | 4.3 µM | 2.11 µM | 6.5 µM | 2.11 µM | 4.5 µM | 2.78 µM | 7.38 µM | 10.3 µM | 29.7 µM | 1.56 µM | 3.54 µM | 1.94 µM | 5.05 µM | 4 µM | 15.9 µM | 2.34 µM | 5.19 µM | 1.69 µM | 5.86 µM
CN(C)c1cc2c(Nc3ccc4nc(Cc5ccccc5)[nH]c4c3)ncnc2cn1 | > 17.4 µM | > 25 µM | > 16.1 µM | > 25 µM | 11.9 µM | > 23 µM | 12 µM | > 25 µM | > 18 µM | > 25 µM | 13.1 µM | > 25 µM | 8.79 µM | > 25 µM | 14.4 µM | > 25 µM | 12.1 µM | > 25 µM | > 17.6 µM | > 25 µM
CCCCCCCCCCCCCCCCCC(=O)[O][Sn]([CH2]CCC)([CH2]CCC)[CH2]CCC | 0.133 µM | 0.38 µM | 0.152 µM | 0.403 µM | 0.113 µM | 0.311 µM | 0.1 µM | 0.253 µM | 0.162 µM | 0.319 µM | 0.117 µM | 0.25 µM | 0.0738 µM | 0.388 µM | 0.181 µM | 0.377 µM | 0.136 µM | 0.271 µM | 0.217 µM | 0.752 µM
O=C1C(=O)c2ccccc2C=C1[N+](=O)[O-] |  | > 100 µM |  | > 100 µM |  | > 100 µM |  | 78.9 µM |  | > 100 µM |  | 69.9 µM |  | > 100 µM |  | > 100 µM |  | > 100 µM |  | > 100 µM
O=[n+]1cnn([O-])c2ccccc21 |  | > 100 µM |  | > 100 µM |  | 40.4 µM |  | 59.6 µM |  | > 100 µM |  | 36.9 µM |  | > 100 µM |  | 55.7 µM |  | > 100 µM |  | > 100 µM
N#CC(NC12CC3CC(CC(C3)C1)C2)c1ccccc1 (stereo not given) |  | > 100 µM |  | > 100 µM |  | > 100 µM |  | > 100 µM |  | > 100 µM |  | > 100 µM |  | > 100 µM |  | > 100 µM |  | > 100 µM |  | > 100 µM
S=c1cn[nH]c2ccc(Br)cc12 |  | > 100 µM |  | > 100 µM |  | > 100 µM |  | 70.7 µM |  | > 100 µM |  | > 100 µM |  | > 100 µM |  | > 100 µM |  | > 100 µM |  | > 100 µM
O=C(/C=C/c1ccccc1Cl)c1ccc(O)cc1 | 3.09 µM | 10.3 µM | 8.51 µM | 33.1 µM | 4.72 µM | 17.4 µM | 1.97 µM | 5.59 µM | 15.2 µM | 42.8 µM | 2.98 µM | 10.8 µM | 2.82 µM | > 24.4 µM | 5.22 µM | 12.2 µM | 4.16 µM | 13.1 µM | 2.33 µM | 7.19 µM
